We go through 47 molecules from ChEMBL document CHEMBL2203115, “Design and synthesis of procollagen C-proteinase inhibitors” (Bioorg Med Chem Lett, 2012).

The structures appear in SMILES notation. Peptide text beside a SMILES is read from it. * marks the point of attachment. NHOH = ON* A value given as a limit tells only on which side of the number the result lay.

The target of the first assay is T1, Bone morphogenetic protein 1 (Homo sapiens, UniProt P13497).
T1 sequence (P13497 whole entry): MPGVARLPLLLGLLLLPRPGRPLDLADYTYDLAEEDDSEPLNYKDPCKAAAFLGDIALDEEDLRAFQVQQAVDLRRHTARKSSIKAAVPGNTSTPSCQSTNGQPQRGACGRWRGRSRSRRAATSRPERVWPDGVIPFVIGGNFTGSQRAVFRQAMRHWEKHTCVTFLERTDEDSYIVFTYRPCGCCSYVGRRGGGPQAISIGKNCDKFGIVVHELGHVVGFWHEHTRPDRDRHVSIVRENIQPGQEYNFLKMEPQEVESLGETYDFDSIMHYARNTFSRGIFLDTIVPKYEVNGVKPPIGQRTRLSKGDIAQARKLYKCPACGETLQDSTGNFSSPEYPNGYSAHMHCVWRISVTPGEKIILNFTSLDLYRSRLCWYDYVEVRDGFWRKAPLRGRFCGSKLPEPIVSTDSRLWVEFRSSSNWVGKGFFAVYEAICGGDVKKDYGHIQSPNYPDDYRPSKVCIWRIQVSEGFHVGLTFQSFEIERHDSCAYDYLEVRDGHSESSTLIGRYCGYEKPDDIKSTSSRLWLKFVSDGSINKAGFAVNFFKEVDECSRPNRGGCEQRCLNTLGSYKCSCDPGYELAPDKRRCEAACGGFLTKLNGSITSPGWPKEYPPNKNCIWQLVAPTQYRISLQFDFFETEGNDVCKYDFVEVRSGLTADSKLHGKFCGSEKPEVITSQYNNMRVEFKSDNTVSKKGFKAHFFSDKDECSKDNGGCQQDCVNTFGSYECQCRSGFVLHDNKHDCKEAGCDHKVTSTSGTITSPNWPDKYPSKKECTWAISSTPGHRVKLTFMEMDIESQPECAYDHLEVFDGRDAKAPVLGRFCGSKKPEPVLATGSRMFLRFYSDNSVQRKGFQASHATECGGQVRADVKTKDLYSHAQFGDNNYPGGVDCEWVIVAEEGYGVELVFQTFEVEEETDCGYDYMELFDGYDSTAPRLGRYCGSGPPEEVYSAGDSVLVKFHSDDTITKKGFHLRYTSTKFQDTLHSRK
In words: Inhibition of PCP after 1 hr by fluorescence assay.
`COc1ccc(CCN(CC(=O)NO)S(=O)(=O)c2ccc(OC)cc2)cc1` gave an IC50 of 18 µM.

With `COc1ccc(CCN(CCCS)S(=O)(=O)c2ccc(S(C)(=O)=O)cc2)cc1`, the IC50 is 14 µM.

Consider `COc1ccc(CCN(CCS)S(=O)(=O)c2ccc(S(C)(=O)=O)cc2)cc1`, for which the midpoint of inhibition, the IC50, lay at 9.4 µM. This IC50 and that of the molecule before are within 1.5-fold of each other.

For the molecule `CNC(=O)[C@H](CCC(=O)O)NC(=O)C(CC(=O)O)CC(=O)NO` (mixture of isomers), the IC50 amounted to 40 µM. Against the preceding molecule, the IC50 is about 4.3-fold higher.

Regarding `COc1ccc(N(CC(=O)NO)S(=O)(=O)c2ccc(OC)cc2)cc1`, 73 µM corresponded to half-maximal inhibition (IC50). Compared with the last molecule, the IC50 is about 1.8-fold higher.

In the case of `COc1ccc(S(=O)(=O)N(CC(=O)NO)Cc2ccc(C(F)(F)F)cc2)cc1`, the IC50 was determined as 67 µM.

Regarding `COc1ccc(S(=O)(=O)N(CCCC(=O)NO)c2ccccc2)cc1`, the IC50 was 28 µM.

Regarding `COc1ccc(S(=O)(=O)N(CC(=O)NO)Cc2ccccc2)cc1`, the IC50 came to 16 µM.

The molecule `COc1ccc(S(=O)(=O)N(CC(=O)O)CC(=O)NO)cc1` returned an IC50 of 345 µM.

On to `COc1ccc(CCN(CC(=O)CS)S(=O)(=O)c2ccc(S(C)(=O)=O)cc2)cc1`, for which the IC50 was 4.7 µM.

Regarding `COc1ccc(S(=O)(=O)N(CCC(=O)NO)CCc2ccc(S(N)(=O)=O)cc2)cc1`, the IC50 came to 23 µM.

Take `COc1ccc(CCN(CCC(=O)NO)S(=O)(=O)c2ccccc2/C(N)=N\O)cc1`: inhibition was half-maximal at 7.1 µM (IC50).

`COc1ccc(S(=O)(=O)N[C@@H](CC(=O)O)C(=O)NO)cc1` displayed an IC50 of 10 µM. This IC50 and that of the molecule before are within 1.5-fold of each other.

`O=C(CCN(CCc1ccccc1)S(=O)(=O)c1ccccc1)NO`: it took 2.2 µM to reach half-maximal inhibition (IC50).

In turn, `COc1ccc(S(=O)(=O)N(Cc2ccccc2)[C@@H](CC(=O)O)C(=O)NO)cc1` returned an IC50 of 2.8 µM. This IC50 and that of the molecule before are within 1.5-fold of each other.

In turn, `COc1ccc(CCN(CCN(O)C(N)=O)S(=O)(=O)c2ccc(S(C)(=O)=O)cc2)cc1` showed an IC50 of over 100 µM.

`COc1ccc(CCN(CCC(=O)CS)S(=O)(=O)c2ccc(S(C)(=O)=O)cc2)cc1` returned an IC50 of 13 µM.

The molecule `O=C(CCN(CCc1ccccc1)S(=O)(=O)c1ccc(C(=O)O)cc1)NO` came in with an IC50 of 1 µM.

Take `COc1ccc(S(=O)(=O)N(CCC(=O)NO)CCc2ccc(OC)c(OC)c2)cc1`: the IC50 came to 42 µM.

Molecule `COc1ccc(N(CCC(=O)NO)S(=O)(=O)c2ccc(OC)cc2)cc1` returned an IC50 of 1.7 µM.

Molecule `CC(C)(C)c1ccc(S(=O)(=O)N(CCC(=O)NO)CCc2ccccc2)cc1` yielded an IC50 of 17 µM.

As for `COc1ccc(S(=O)(=O)N(CCC(=O)NO)CCc2ccccn2)cc1`, the IC50 is 8.1 µM.

On to `CCCCOC(=O)CN(CC(=O)NO)S(=O)(=O)c1ccc(OC)cc1`, for which the IC50 amounted to 167 µM.

The molecule `COc1ccc(S(=O)(=O)N(CCc2ccccc2)CC(=O)NO)cc1` registered an IC50 of 18 µM.

The molecule `COc1ccc(CCN(CCC(=O)NO)S(=O)(=O)c2ccccc2S(C)(=O)=O)cc1` returned an IC50 of 9.1 µM.

In the case of `COc1ccc(S(=O)(=O)N(CC(=O)NO)Cc2ccc(F)cc2)cc1`, the midpoint of inhibition, the IC50, lay at 34 µM. This IC50 is about 3.7-fold higher than that of the molecule before.

Take `COc1ccc(S(=O)(=O)N(CC(=O)NO)Cc2ccc(Cl)cc2)cc1`: 19 µM corresponded to half-maximal inhibition (IC50).

With `COc1ccc(CN(CC(=O)NO)S(=O)(=O)c2ccc(OC)cc2)cc1`, the IC50 turned out to be 29 µM. Compared with the last molecule, the IC50 is about 1.5-fold higher.

In turn, `CC(=O)N1CCC[C@H]1C(=O)N[C@@H](Cc1ccc(O)cc1)C(=O)N[C@@H](Cc1ccc(O)cc1)C(=O)NCC(=O)NO` (Ac-PYYG-{NHOH}) registered a half-maximal inhibitory concentration (IC50) of 42 µM. This IC50 and that of the molecule before are within 1.5-fold of each other.

`CCCCS(=O)(=O)N(CCc1ccc(OC)cc1)CC(=O)NO` showed an IC50 of 55 µM.

`COc1ccc(S(=O)(=O)N(CCCC(=O)NO)Cc2ccccc2)cc1` had an IC50 of 10 µM.

Molecule `CCC(C)N(CC(=O)NO)S(=O)(=O)c1ccc(OC)cc1` (stereo not given) registered an IC50 of 112 µM.

In turn, `CNC(=O)[C@H](CCC(=O)O)NC(=O)[C@H](CC(=O)O)NCC(=O)O` had an IC50 of 1500 µM.

Consider `CCCCS(=O)(=O)N(CCC(=O)NO)CCc1ccc(OC)cc1`, for which half-maximal inhibition (IC50) required 6.7 µM.

`COc1ccc(S(=O)(=O)N(CC(=O)NO)C(c2ccccc2)c2ccccc2)cc1` yielded an IC50 of 102 µM.

As for `COc1ccc(S(=O)(=O)N(CCC(=O)NO)CC2CCCCC2)cc1`, the IC50 was 1 µM.

`CCC(C)N(CCC(=O)NO)S(=O)(=O)c1ccc(OC)cc1` (stereo not given) gave an IC50 of 1.7 µM.

As for `COc1ccc(S(=O)(=O)N(CCC(=O)NO)CCc2ccc([N+](=O)[O-])cc2)cc1`, the IC50 is 11 µM. Compared with the last molecule, the IC50 is about 6.5-fold higher.

In the case of `COc1ccc(S(=O)(=O)N(CCC(=O)NO)c2ccccc2)cc1`, the midpoint of inhibition, the IC50, lay at 3 µM.

In turn, `COc1ccc(S(=O)(=O)N(CC(=O)NO)c2ccccc2)cc1` showed an IC50 of 69 µM.

`CNC(=O)[C@H](CCC(=O)O)NC(=O)C(CS)CC(=O)O` (stereo not given in full) yielded an IC50 of 85 µM.

Turning to `COc1ccc(S(=O)(=O)N(CCC(=O)NO)Cc2ccccc2)cc1`, half-maximal inhibition (IC50) required 4.5 µM.

With `COc1ccc(S(=O)(=O)N(CCC(=O)NO)CCc2cccc(OC)c2)cc1`, it took 2.3 µM to reach half-maximal inhibition (IC50).

`COc1ccc(S(=O)(=O)NCCC(=O)NO)cc1` had an IC50 of 166 µM.

The next assay has as its system 3T3-L1. Kind of assay: Cytotoxicity against mouse 3T3L1 cells. It is filed as cell-based.
Turning to `COc1ccc(CCN(CCC(=O)NO)S(=O)(=O)c2ccc(/C(N)=N/O)cc2)cc1`, half-maximal inhibition (IC50) was put at 150 µM.

The target of a further assay is Matrix metalloproteinase-9 (Homo sapiens, UniProt P14780). Kind of assay: Inhibition of para-amino phenylmercuric acetate-activated MMP9 using Mca-P-L-G-L-Dap(Dnp)-A-R-NH2 as substrate after 1 hr by fluorescence assay.
Chain of Matrix metalloproteinase-9 (P14780 whole entry): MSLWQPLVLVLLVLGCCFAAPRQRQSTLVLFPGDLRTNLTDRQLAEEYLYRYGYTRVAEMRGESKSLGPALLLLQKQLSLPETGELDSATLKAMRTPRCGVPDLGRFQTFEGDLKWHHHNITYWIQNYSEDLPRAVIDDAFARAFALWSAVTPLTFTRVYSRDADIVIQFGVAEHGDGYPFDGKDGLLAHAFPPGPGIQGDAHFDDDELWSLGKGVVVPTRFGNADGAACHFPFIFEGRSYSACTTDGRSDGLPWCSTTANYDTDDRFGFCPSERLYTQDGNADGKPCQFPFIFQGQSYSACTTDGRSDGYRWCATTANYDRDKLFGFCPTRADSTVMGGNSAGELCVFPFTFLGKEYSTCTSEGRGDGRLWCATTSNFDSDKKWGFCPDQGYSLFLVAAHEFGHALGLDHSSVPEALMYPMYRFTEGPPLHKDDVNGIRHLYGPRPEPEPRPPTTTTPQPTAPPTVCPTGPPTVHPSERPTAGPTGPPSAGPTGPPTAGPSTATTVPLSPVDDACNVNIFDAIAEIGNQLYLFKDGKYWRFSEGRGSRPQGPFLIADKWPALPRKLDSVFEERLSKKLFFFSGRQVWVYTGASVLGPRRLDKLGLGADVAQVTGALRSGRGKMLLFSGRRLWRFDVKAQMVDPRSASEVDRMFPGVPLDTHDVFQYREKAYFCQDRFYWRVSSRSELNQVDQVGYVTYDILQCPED
For the molecule `COc1ccc(CCN(CCC(=O)NO)S(=O)(=O)c2ccc(S(C)(=O)=O)cc2)cc1`, the IC50 was over 6 µM.

The molecule `COc1ccc(CCN(CCC(=O)NO)S(=O)(=O)c2ccc(/C(N)=N/O)cc2)cc1` displayed an IC50 of over 25 µM.

For the molecule `COc1ccc(S(=O)(=O)N(CC(=O)NO)Cc2ccc(Cl)cc2)cc1`, the IC50 worked out at 0.05 µM. This counts as double-digit nanomolar.

`COc1ccc(CCN(CCC(=O)NO)S(=O)(=O)c2ccc(NC(=O)NCc3ccccc3)cc2)cc1`: the IC50 is over 25 µM.

A further assay concerns the target T2, Interstitial collagenase (Homo sapiens, UniProt P03956).
T2 sequence (P03956 whole entry): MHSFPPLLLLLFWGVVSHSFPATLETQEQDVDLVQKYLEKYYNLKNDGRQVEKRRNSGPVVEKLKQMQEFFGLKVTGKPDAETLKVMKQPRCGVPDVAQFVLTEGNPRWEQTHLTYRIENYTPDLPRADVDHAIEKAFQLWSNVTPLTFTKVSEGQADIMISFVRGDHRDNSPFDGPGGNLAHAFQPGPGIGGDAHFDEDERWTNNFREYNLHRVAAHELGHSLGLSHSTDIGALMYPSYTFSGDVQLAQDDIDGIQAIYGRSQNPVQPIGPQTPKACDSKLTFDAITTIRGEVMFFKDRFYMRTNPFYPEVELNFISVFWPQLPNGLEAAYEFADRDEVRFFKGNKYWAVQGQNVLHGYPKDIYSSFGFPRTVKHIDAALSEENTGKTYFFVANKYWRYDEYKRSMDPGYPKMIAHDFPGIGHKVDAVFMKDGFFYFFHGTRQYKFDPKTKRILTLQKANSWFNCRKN
In words: Inhibition of para-amino phenylmercuric acetate-activated MMP1 using Mca-P-L-G-L-Dap(Dnp)-A-R-NH2 as substrate after 1 hr by fluorescence assay.
`COc1ccc(CCN(CCC(=O)NO)S(=O)(=O)c2ccc(/C(N)=N/O)cc2)cc1` had an IC50 of over 25 µM.

As for `COc1ccc(CCN(CCC(=O)NO)S(=O)(=O)c2ccc(NC(=O)NCc3ccccc3)cc2)cc1`, the IC50 was over 25 µM.

For the next assay, the target named is 72 kDa type IV collagenase (Homo sapiens, UniProt P08253). Kind of assay: Inhibition of para-amino phenylmercuric acetate-activated MMP2 using Mca-P-L-G-L-Dap(Dnp)-A-R-NH2 as substrate after 1 hr by fluorescence assay.
Chain of 72 kDa type IV collagenase (P08253 whole entry): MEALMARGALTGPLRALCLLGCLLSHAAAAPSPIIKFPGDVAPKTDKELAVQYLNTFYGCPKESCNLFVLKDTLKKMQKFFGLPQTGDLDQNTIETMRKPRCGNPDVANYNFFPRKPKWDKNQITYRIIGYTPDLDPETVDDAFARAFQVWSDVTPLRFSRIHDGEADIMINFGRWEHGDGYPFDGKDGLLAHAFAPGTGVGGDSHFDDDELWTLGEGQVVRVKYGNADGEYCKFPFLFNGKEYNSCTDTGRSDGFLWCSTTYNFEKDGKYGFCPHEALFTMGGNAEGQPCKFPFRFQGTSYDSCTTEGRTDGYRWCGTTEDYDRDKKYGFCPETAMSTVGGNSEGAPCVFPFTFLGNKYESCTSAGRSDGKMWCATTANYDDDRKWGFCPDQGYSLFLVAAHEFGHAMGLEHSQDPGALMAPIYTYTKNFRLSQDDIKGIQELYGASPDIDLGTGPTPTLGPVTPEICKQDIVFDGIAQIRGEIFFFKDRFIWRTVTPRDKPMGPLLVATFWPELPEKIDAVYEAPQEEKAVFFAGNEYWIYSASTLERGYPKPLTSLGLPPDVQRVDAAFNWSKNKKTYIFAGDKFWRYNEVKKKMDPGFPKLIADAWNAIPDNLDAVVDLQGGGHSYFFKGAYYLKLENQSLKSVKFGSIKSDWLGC
Consider `COc1ccc(CCN(CCC(=O)NO)S(=O)(=O)c2ccc(S(C)(=O)=O)cc2)cc1`, for which the IC50 is over 6 µM.

Molecule `COc1ccc(CCN(CCC(=O)NO)S(=O)(=O)c2ccc(/C(N)=N/O)cc2)cc1` came in with a half-inhibitory concentration (IC50) of over 25 µM.

The molecule `COc1ccc(S(=O)(=O)N(CC(=O)NO)Cc2ccc(Cl)cc2)cc1` showed an IC50 of 0.14 µM. In other words, the sub-micromolar range.

In turn, `COc1ccc(CCN(CCC(=O)NO)S(=O)(=O)c2ccc(NC(=O)NCc3ccccc3)cc2)cc1` displayed an IC50 of over 25 µM.
